Results on 1 molecule are retold here after patent US20140296143A1, “Angiotensin-(1-7) As A Chemoprevention Agent” (Wake Forest Innovations, priority 2008, published 2014).

One assay deals with caspase-3. The assay can be described thus: Caspase-3 activity in A549 cell lysates, fluorometric assay. Type of assay: cell-based, human. Conditions: A549 cells, 100 nM; maximal at 16 and 24 h. Here is the method:
The specificity of the activity of each caspase substrate was also verified by assays in the presence of specific inhibitors. […] Caspase-3 activity was measured by a fluorometric assay using Ac-DEVD-AFC (Acetylated-Asp-Glu-Val-Asp-7-amino-4-trifluoromethylcoumarin) (SEQ ID NO: 9) as a specific substrate for caspase-3 and Z-DEVD-CHO as a selective caspase-3 inhibitor. Caspase-8 activity was measured by a fluorometric assay using Ac-LETD-AFC (Acetylated-Leu-Glu-Thr-Asp-7-amino-4-trifluoromethylcoumarin) (SEQ ID NO: 10) as a specific substrate and Z-LETD-CHO as a selective caspase-8 inhibitor. The data are presented as relative fluorescence units (RFU).

For assay [1], the system named is A549 human lung tumor xenografts. In words: A549 human lung tumor xenograft in athymic mice, subcutaneous injection. In kind it is in vivo, mouse. Here is the method:
For reverse-transcriptase real-time PCR, RNA was isolated from cells or tissue, using the TRIzol reagent (GIBCO Invitrogen Corp., Carlsbad, Calif.), as directed by the manufacturer. The RNA concentration and integrity were assessed using an Agilent 2100 Bioanalyzer with an RNA 6000 nano LabChip (Agilent Technologies, Palo Alto, Calif.). Approximately 1 μg of total RNA was reverse transcribed using avian myeloblastosis virus reverse transcriptase (RT) in a 20 μL mixture containing deoxyribonucleotides, random hexamers and RNase inhibitor in RT buffer. Heating the RT reaction product at 95° C. terminated the reaction. For real-time polymerase chain reaction (PCR), 2 μL of the resultant cDNA was added to TaqMan Universal PCR Master Mix (Applied Biosystems, Foster City, Calif.) with a gene-specific primer/probe set (Applied Biosystems, Foster City, Calif.) and amplification was performed on an ABI 7000 Sequence Detection System. The mixtures were heated at 50° C. for 2 min, at 95° C. for 10 min followed by 40 cycles at 95° C. for 15 sec and 60° C. for 1 min. All reactions were performed in triplicate and 18S ribosomal RNA, amplified using the TaqMan Ribosomal RNA Control Kit (Applied Biosystems), served as an internal control. The results were quantified as Ct values, where Ct is defined as the threshold cycle of PCR at which amplified product is first detected, and expressed as the ratio of target/control (Relative Gene Expression).
(§1) Male or female athymic mice (15-20 g, 2-4 weeks of age, Charles River Laboratory, Wilmington, Mass.) were housed in cages with HEPA-filtered air (12-hour light/dark cycle) and ad libitum access to food and autoclaved water. All procedures complied with the policies of the Wake Forest University Animal Care and Use Committee. Mice were inoculated subcutaneously in the lower left flank with approximately 1.9×10^6 A549 lung cancer cells or ZR-75-1 breast cancer cells suspended in 200 μL of cold Matrigel (BD Biosciences, Bedford, Mass.). […] The mice were anesthetized by inhalation with 1.5% isoflurane. […] The minipumps also contained heparin (25 U/mL) to maintain patency of the catheter. On day 28 of the infusion, the animals were anesthetized with halothane and sacrificed by decapitation. Alternatively, the mice received daily subcutaneous injections of Ang-(1-7) in saline or saline alone.
The mice were injected daily, for 5 days, followed by a 2 day rest period, and the injections were continued for 7 cycles. Tumor size was measured every 3 days during the treatment period, using a caliper, and tumor volume was calculated using the formula for a semi-ellipsoid. The tumors continued to grow in the mice treated with saline (FIG. 33). […] It should be noted that a number of the saline control mice were sacrificed after 1 month due to excessive tumor size. Only a single control mouse remained in the study by the 40th day, while the Ang-(1-7)-treated mice thrived.

A further assay concerns the target AT1 angiotensin receptor. The following applies: cited from earlier work.
In a further assay the test system is ERK1. Conditions: SK-LU-1, 10 nM pretreatment; Gallagher et al., 2004; cited from earlier work.
The next assay concerns VEGF mRNA. The assay can be described thus: VEGF mRNA in A549 cells by RT-PCR. In kind it is cell-based, human. Conditions: 100 nM, 2-4 hours. How it is done:
RNA, isolated from cells or tissue, using the TRIzol reagent (GIBCO Invitrogen, Carlsbad, Calif.), was subjected to reverse transcriptase/real-time polymerase chain reaction as previously described (Tallant et al., Am. J. Physiol. Heart Circ. Physiol., 2005, 289:1560-1566). All reactions were performed in triplicate and 18S ribosomal RNA, amplified using the TaqMan Ribosomal RNA Control Kit (Applied Biosystems), served as an internal control. The results were quantified as Ct values, where Ct is defined as the threshold cycle of PCR at which amplified product is first detected, and defined as relative gene expression (the ratio of target/control). […] The RNA concentration was quantified by UV spectroscopy and any degradation assessed by ethidium bromide staining intensity of 28S and 18S ribosomal RNA following agarose gel electrophoresis. […] Following PCR, the amplification products were separated by polyacrylamide gel electrophoresis, visualized by autoradiography, and analyzed using the MCID imaging system.
For reverse-transcriptase real-time PCR, RNA was isolated from cells or tissue, using the TRIzol reagent (GIBCO Invitrogen Corp., Carlsbad, Calif.), as directed by the manufacturer. The RNA concentration and integrity were assessed using an Agilent 2100 Bioanalyzer with an RNA 6000 nano LabChip (Agilent Technologies, Palo Alto, Calif.). […]

The subject of assay [2] is ZR-75-1 breast cancer cell line tumors. The assay can be described thus: ZR-75-1 breast cancer xenograft in athymic mice, intravenous infusion. In kind it is in vivo, mouse. Conditions: 24 μg/kg/hr infusion, 28 days; saline tumors doubled. Here is the method:
as §1
Tumor volumes were measured by caliper two times per week and calculated using the formula for a semiellipsoid. After 40 days, the mice had tumors approximately 175 mm^3 in size and were randomized for treatment.

Setting [3] is: 1000 μg/kg/day, radioimmunoassay.
[4] abbreviates: subcutaneous 1000 μg/kg/day, versus saline.

On to `CC[C@H](C)[C@H](NC(=O)[C@H](Cc1ccc(O)cc1)NC(=O)[C@@H](NC(=O)[C@H](CCCNC(=N)N)NC(=O)[C@@H](N)CC(=O)O)C(C)C)C(=O)N[C@@H](Cc1c[nH]cn1)C(=O)N1CCC[C@H]1C(=O)O` [Ang-(1-7), Asp-Arg-Val-Tyr-Ile-His-Pro], for which, in the assay with caspase-3, the “time-dependent increase in caspase-3 activity” value is listed as “about 2 fold”. For the same molecule, the prostacyclin synthase entry in assay [1] (1000 μg/kg/day) is “not altered”. In assay [1] (setting [3]), the PGE2 in tumors result is listed as “reduced” and the PGI2 in tumors entry is “increased”. Moreover, the tumor growth result in assay [1] (subcutaneous 1000 μg/kg/day, 5 days on/2 days rest, 7 cycles) is “significantly reduced”. In addition, in assay [1] (setting [4]), the COX-2 in tumors result is reported as “marked down-regulation”, the “down-regulation in VEGF mRNA in tumor tissue” value is given as “about 40%” and the “reduction in prostaglandin E2 synthase (PGES) mRNA in tumors” value is reported as “greater than 50%”. Besides, the “IC50 at the AT1 angiotensin receptor” value at AT1 angiotensin receptor (Tallant et al., 1999) is recorded as “micromolar range”. The “competition at the AT1 receptor” value in the assay on AT1 angiotensin receptor (literature) is “poor competitor”. The “reduction of serum-stimulated phosphorylation of ERK1” value in the assay on ERK1 is listed as 61%. For the same molecule, the “optimal reduction of VEGF mRNA” value in the assay with VEGF mRNA is on record as “greater than 50%”. Further, the “reduction in tumor volume compared to tumor size prior to treatment” value in assay [2] is around 40%.
